Reference: patent publication US7109380B2, “Cyclopentenedione antifungal compounds and methods for their use” (The University of Mississippi, priority 2004, dated 2006)
In brackets after ≈: the same amount, converted by molar mass. Where two headings read alike, the source gives them in different places.

Key:
C. krusei ATCC 6258 = assay: In vitro antimicrobial assay (modified NCCLS), Candida media pH 4.5; type: cell-based, Candida krusei; details: Pichia kudriavzevii, ATCC6258, pH 4.5, read-out: IC50 (50% inhibitory concentration)
[1] = test system: M. intracellulare ATCC 23068; assay: In vitro antibacterial assay (modified method of Franzblau, Alamar Blue); type: cell-based; details: Mycobacterium intracellulare
C. albicans ATCC 90028 = assay: In vitro antimicrobial assay (modified NCCLS), Candida media pH 4.5; type: cell-based, Candida albicans; details: Candida albicans
C. glabrata ATCC 90030 = assay: as above; type: cell-based, Candida glabrata; details: Nakaseomyces glabratus
Phomopsis obscurans = assay: 96-well microtiter fungal growth assay; type: cell-based
Text: (§1) Pathogen collection. Isolates of Colletotrichum acutatum Simmonds, Colletotrichum fragariae Brooks, and Colletotrichum gloeosporioides (Penz.) Penz. & Sacc. in Penz. were obtained from B. J. Smith, USDA, ARS, Small Fruit Research Station, Poplarville, Mass. Colletotrichum fragariae (isolate CF63), C. acutatum (isolate CAGoff), and C. gloeosporioides (isolate CG162) were used for all pathogen and bioautography studies. Isolate CF63 is one of the most virulent isolates at infecting strawberry plants and inducing both crown and fruit rot (Smith and Black, 1990). CF63, CAGoff, and CG162 were used as standard test isolates because of our extensive knowledge of these isolates and their known fungicide sensitivity profiles in both bioautography and microtiter formats. The three Colletotrichum species were isolated from strawberry (Fragaria xananassa Duchesne). Botrytis cinerea Pers.:Fr, was isolated from commercial grape (Vitis vinifera L.) and Fusarium oxysporum Schlechtend:Fr from orchid (Cynoches sp.) by David E. Wedge, USDA ARS Natural Products Utilization Research Unit. Phomopsis viticola (Sacc.) and P. obscurans (Ellis & Everh.) Sutton were from Mike A. Ellis, Ohio State University, Wooster, Ohio. Fungi were grown on potato-dextrose agar (PDA, Difco, Detroit Mich.) in 9 cm petri dishes and incubated in a growth chamber at 24±2° C. and under cool-white fluorescent lights ([…]·m^−2·sec^−1 light) with 12-h photoperiod.
(§2) Inoculum preparation. Conidia were harvested from 7–10 day-old cultures by flooding plates with 5 mL of sterile distilled water and dislodging conidia by softly brushing the colonies with an L-shaped glass rod. Conidial suspensions were filtered through sterile miracloth (Calbiochem-Novabiochem Corp., La Jolla Calif.) to remove mycelia. Conidia concentrations were determined photometrically, from a standard curve based on the absorbance at 625 nm and suspensions were then adjusted with sterile distilled water to a concentration of 1.0×10^6 conidia/mL.
(§3) Microtiter assay. A standardized 96-well microtiter plate assay developed for discovery of natural product fungicidal agents. A 96-well microtiter assay was used to determine sensitivity of B. cinerea, C. acutatum, C. fragariae, C. gloeosporioides, F. oxysporum, Phomopsis viticola, and P. obscurans to the various antifungal agents in comparison with known fungicidal standards. Vinclozolin, captan, and thiabendazole, which represent three different modes of action, were used as standards in this experiment. Each fungus was challenged in a dose-response format using test compounds where the final treatment concentrations were 0.3, 3.0 and 30.0 μM. Microtiter plates (Nunc MicroWell, untreated; Roskilde, Denmark) were covered with a plastic lid and incubated in a growth chamber at 24±1 C and 12 h photoperiod under 60±5 μmol light. Growth was then evaluated by measuring absorbance of each well at 620 nm using a microplate photometer (Packard Spectra Count, Packard Instrument Co., Downers Grove, Ill.).
(§4) Microbioassay Experimental Design. Chemical sensitivity of each fungus 96-well microtiter assay is used to determine sensitivity of B. cinerea, C. acutatum, C. fragariae, C. gloeosporioides, F. oxysporum, Phomopsis viticola, and P. obscurans. Each chemical is evaluated in duplicate at each dose (0.3, 3.0 and 30.0 μM) and repeated twice in time. Sixteen wells containing broth and inoculum serves as positive controls, eight wells containing solvent at the appropriate concentration and broth without inoculum are used as negative controls. […] Treatments are arranged as a split-plot design replicated twice in time. Whole-plots were fungal isolates and sub-plots are chemicals. Each dose level and response time is analyzed separately. The SAS system's analysis of variance procedure (Statistical Analysis System, Cary, N.C.) is used to identify significant factors and Fisher's protected LSD is used to separate means.

Phomopsis viticola = assay: 96-well microtiter fungal growth assay; type: cell-based;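 on Mean percent fungal growth inhibition of Phomopsis viticola: percent relative to untreated positive growth controls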
Text: as §1, §2, §3, §4

[2] = test system: Candida albicans ATCC 90028; assay: In vitro antifungal susceptibility testing (modified NCCLS method), media pH 7.3; type: cell-based

Structure (SMILES): COC(/C=C/c1ccccc1)=C1\C(=O)C=C(C)C1=O [Compound 1, coruscanone A]
- IC50 (C. krusei ATCC 6258): 2.5 µg/mL (≈ 9.83 µM)
- IC50 ([1]; ATCC23068, read-out: IC50 (50% inhibitory concentration)): 1.5 µg/mL (≈ 5.9 µM)
- MIC ([1]; ATCC23068, M. intracellulare ATCC 23068): 2.5 µg/mL (≈ 9.83 µM)
- MBC ([1]; ATCC23068, M. intracellulare ATCC 23068, read-out: MBC (Minimum Bactericidal Concentration)): 5 µg/mL (≈ 19.7 µM)
- IC50 (C. albicans ATCC 90028; ATCC90028, pH 4.5, read-out: IC50 (50% inhibitory concentration)): 0.2 µg/mL (≈ 0.787 µM)
- MFC (C. albicans ATCC 90028; ATCC90028, C. albicans ATCC 90028, pH 4.5, Table 3, read-out: MFC): 0.63 µg/mL (≈ 2.48 µM)
- MIC (C. albicans ATCC 90028; ATCC90028, C. albicans ATCC 90028, pH 4.5, Table 3, read-out: MIC): 0.31 µg/mL (≈ 1.22 µM)
- IC50 (C. glabrata ATCC 90030; ATCC90030, pH 4.5, read-out: IC50 (50% inhibitory concentration)): 2.5 µg/mL (≈ 9.83 µM)
- MIC (C. glabrata ATCC 90030; ATCC90030, C. glabrata ATCC 90030, pH 4.5, read-out: MIC): 5 µg/mL (≈ 19.7 µM)
- Percent change in fungal growth vs control (negative = inhibition) (Phomopsis obscurans; 0.3 μm, 120 hrs): 3.3 ± 19.9%
- Percent change in fungal growth vs control (negative = inhibition) (Phomopsis obscurans; 0.3 μm, 144 hrs): 33.3 ± 41.6%
- Percent change in fungal growth vs control (negative = inhibition) (Phomopsis obscurans; 3.0 μm, 120 hrs): −37.4 ± 25.0%
- Percent change in fungal growth vs control (negative = inhibition) (Phomopsis obscurans; 3.0 μm, 144 hrs): −13.3 ± 36.0%
- Percent change in fungal growth vs control (negative = inhibition) (Phomopsis obscurans; 30 μm, 120 hrs): −88.5 ± 3.4%
- Percent change in fungal growth vs control (negative = inhibition) (Phomopsis obscurans; 30 μm, 144 hrs): −96.9 ± 1.2%
- IC50 (Phomopsis obscurans; Paraphomopsis obscurans, Phomopis obscurans, at 120 hr, read-out: IC50 (growth inhibition)): < 3.1 µM
- Mean percent fungal growth inhibition of Phomopsis viticola (Phomopsis viticola; 0.3 μm, 120 hrs): 7.4 ± 124.1%
- Mean percent fungal growth inhibition of Phomopsis viticola (Phomopsis viticola; 0.3 μm, 144 hrs): 423.2 ± 185.3%
- Mean percent fungal growth inhibition of Phomopsis viticola (Phomopsis viticola; 3.0 μm, 120 hrs): −71.1 ± 50.9%
- Mean percent fungal growth inhibition of Phomopsis viticola (Phomopsis viticola; 3.0 μm, 144 hrs): −71.3 ± 15.7%
- Mean percent fungal growth inhibition of Phomopsis viticola (Phomopsis viticola; 30 μm, 120 hrs): −61.8 ± 86.8%
- Mean percent fungal growth inhibition of Phomopsis viticola (Phomopsis viticola; 30 μm, 144 hrs): −79.1 ± 13.3%
- IC50 (Phomopsis viticola; Diaporthe ampelina, 72 h, read-out: IC50 (growth inhibition)): < 1.55 µM
- Antifungal activity against C. albicans (in words) [2]: potent activity
- MFC ([2]; ATCC90028, Candida albicans ATCC 90028, Table 1, read-out: MFC (Minimum Fungicidal Concentration)): 1.56 µg/mL (≈ 6.13 µM)
- MIC ([2]; ATCC90028, Candida albicans ATCC 90028, Table 1, read-out: MIC (Minimum Inhibitory Concentration)): 0.78 µg/mL (≈ 3.07 µM)
- Antifungal activity against C. albicans (in words) ([2]; listed as coruscanone A): comparable to or stronger than those of positive control drugs
